Assay results reported in paper PMC9958709 (Pharmaceuticals, 2023).

Tests used:
[1] = molecular target: acetylcholinesterase (AChE) (Homo sapiens, UniProt P22303); assay: biochemical; format: biochemical; details: for IC50: read-out: AChE IC50 (µM ± SEM)
Experimental: (§1) The AChE/(BuChE) inhibitory test was measured using a spectrophotometric method developed by Elman et al.. A buffer solution containing phosphate (pH 8.0) of volume 140 μL; 20 μL of each AChE/BuChE solution; and 20 μL of the test sample were incubated at room temperature for 15 min. […] was used to start the reaction, followed by the addition of DTNB. ATCh or BTCh hydrolyzed the reaction of DTNB with thiocholine for 15 min; unrestricted by AChE and BuChE enzymatic hydrolysis. […] Each sample’s inhibitory activity was measured in terms of IC50 ([…]) or μM. For all substances, the IC50 values were derived using a generic graph.

[2] = molecular target: butyrylcholinesterase (BuChE) (Homo sapiens, UniProt P06276); assay: biochemical; format: biochemical; details: for IC50: read-out: BuChE IC50 (µM ± SEM)
butyrylcholinesterase (BuChE), sequence (P06276 29-602): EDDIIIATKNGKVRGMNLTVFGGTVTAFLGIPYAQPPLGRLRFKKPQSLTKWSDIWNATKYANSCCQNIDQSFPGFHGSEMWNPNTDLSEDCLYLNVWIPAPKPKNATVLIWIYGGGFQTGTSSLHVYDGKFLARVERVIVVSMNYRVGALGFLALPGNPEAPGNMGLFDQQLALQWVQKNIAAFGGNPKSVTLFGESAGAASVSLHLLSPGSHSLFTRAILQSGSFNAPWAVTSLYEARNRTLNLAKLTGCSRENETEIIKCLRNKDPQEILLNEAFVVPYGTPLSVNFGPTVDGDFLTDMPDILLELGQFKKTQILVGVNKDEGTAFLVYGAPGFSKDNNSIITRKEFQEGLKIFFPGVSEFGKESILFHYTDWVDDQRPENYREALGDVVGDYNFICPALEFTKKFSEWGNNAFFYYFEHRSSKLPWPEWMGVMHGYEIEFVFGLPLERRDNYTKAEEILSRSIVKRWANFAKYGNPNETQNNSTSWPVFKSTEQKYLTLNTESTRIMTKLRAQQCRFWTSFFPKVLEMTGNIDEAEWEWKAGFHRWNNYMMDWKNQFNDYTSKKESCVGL
Experimental: as §1

acetylcholinesterase (AChE), sequence (P22303 32-614, species assumed): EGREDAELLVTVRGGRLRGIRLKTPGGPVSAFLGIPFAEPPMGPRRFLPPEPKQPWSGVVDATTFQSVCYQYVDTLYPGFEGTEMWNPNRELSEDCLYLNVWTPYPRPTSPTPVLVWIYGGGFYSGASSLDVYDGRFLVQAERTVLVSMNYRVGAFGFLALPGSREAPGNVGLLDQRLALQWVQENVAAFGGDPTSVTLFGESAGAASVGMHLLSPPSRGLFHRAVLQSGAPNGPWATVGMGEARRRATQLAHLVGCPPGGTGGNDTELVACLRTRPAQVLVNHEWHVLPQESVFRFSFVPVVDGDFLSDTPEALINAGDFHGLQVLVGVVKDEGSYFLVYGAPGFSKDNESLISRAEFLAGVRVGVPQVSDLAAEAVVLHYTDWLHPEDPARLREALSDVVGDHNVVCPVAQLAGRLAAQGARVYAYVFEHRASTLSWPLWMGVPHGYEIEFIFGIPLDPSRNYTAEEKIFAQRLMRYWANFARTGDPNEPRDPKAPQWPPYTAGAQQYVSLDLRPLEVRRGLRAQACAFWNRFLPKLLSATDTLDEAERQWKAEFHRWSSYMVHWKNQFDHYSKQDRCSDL

Compound	IC50 [1] [µM]	IC50 [2] [µM]	inhibition of acetylcholinesterase, in words [1]	inhibition of butyrylcholinesterase, in words [2]
COc1ccc2[nH]c(-c3cc(Br)ccc3OC)nc2c1 [Compound 17]	6.1 ± 0.1	3.9 ± 0.1	–	–
COc1ccc2[nH]c(-c3ccc(Cl)c(Cl)c3)nc2c1 [Compound 3]	0.05 ± 0.001	0.08 ± 0.001	–	–
CCOc1ccc(-c2nc3cc(OC)ccc3[nH]2)cc1OC [Compound 18]	11.3 ± 0.3	9.8 ± 0.3	–	–
COc1ccc2[nH]c(-c3ccc4ccccc4c3)nc2c1 [Compound 5]	25.3 ± 0.4	25.8 ± 0.4	–	–
COc1ccc2[nH]c(-c3ccc(N(C)C)cc3)nc2c1 [Compound 8]	6.8 ± 0.2	4.7 ± 0.1	–	–
COc1ccc2[nH]c(-c3cccc([N+](=O)[O-])c3)nc2c1 [Compound 2, 5-Methoxy-2-(3-Nitrophenyl)-1H-Benzo[d]-Imidazole]	5.1 ± 0.1	5.9 ± 0.1	–	–
COc1ccc(-c2nc3cc(OC)ccc3[nH]2)c(OC)c1 [Compound 19]	9.2 ± 0.2	6.8 ± 0.2	–	–
COc1ccc2[nH]c(-c3cc(OC)c(Br)cc3OC)nc2c1 [Compound 20]	–	–	did not show any activity	did not show any activity
COc1ccc2[nH]c(-c3ccc(C)cc3C)nc2c1 [Compound 6]	4.1 ± 0.1	5.1 ± 0.2	–	–
COc1ccc2[nH]c(-c3ccc(OC)c(O)c3)nc2c1 [Compound 9]	2.3 ± 0.1	2.1 ± 0.1	–	–
COc1ccc2nc(-c3ccc(-c4nc5ccc(OC)cc5[nH]4)cc3)[nH]c2c1 [Compound 12]	5.1 ± 0.1	5.8 ± 0.1	–	–
COc1ccc2[nH]c(-c3cc(OC)c(O)c(OC)c3)nc2c1 [Compound 21]	2.1 ± 0.1	2.7 ± 0.1	–	–
COc1ccc2[nH]c(-c3ccc([N+](=O)[O-])cc3)nc2c1 [Compound 1, 5-Methoxy-2-(4-Nitrophenyl)-1H-Benzo[d]-Imidazole]	2.1 ± 0.1	1.6 ± 0.1	–	–
COc1ccc2[nH]c(-c3ccc(Cl)cc3Cl)nc2c1 [Compound 11]	0.2 ± 0.001	0.3 ± 0.001	–	–
COc1ccc2[nH]c(-c3ccc(OCc4ccccc4)cc3)nc2c1 [Compound 7]	5.8 ± 0.1	5.9 ± 0.1	–	–
COc1ccc2[nH]c(-c3ccc(O)cc3)nc2c1 [Compound 15]	0.8 ± 0.001	0.9 ± 0.001	–	–
COc1ccc2[nH]c(-c3c(O)ccc4ccccc34)nc2c1 [Compound 14]	–	–	did not show any activity	did not show any activity
COc1ccc2[nH]c(-c3ccccc3[N+](=O)[O-])nc2c1 [Compound 4]	3.4 ± 0.1	3.6 ± 0.1	–	–
COc1ccc2[nH]c(-c3c4ccccc4cc4ccccc34)nc2c1 [Compound 13]	–	–	did not show any activity	did not show any activity
COc1ccc2[nH]c(-c3cccc(O)c3)nc2c1 [Compound 16]	1.3 ± 0.1	2.1 ± 0.1	–	–
COc1ccc2[nH]c(-c3cc(Cl)cc(Cl)c3O)nc2c1 [Compound 10]	0.1 ± 0.001	0.4 ± 0.001	–	–
